The test system of data set [1] is PPC1 prostate cancer cells. In words: T7 phage binding and internalization on cultured PPC1 cells. In kind it is cell-based, human. The conditions noted are these: for effect of trypsin treatment of phage on binding to PPC1 cells: peptide-displaying phage treated with trypsin before cell binding; for phage binding to and internalization into PPC1 cells: peptide displayed at C-terminus of T7 phage coat protein, binding at 4° C., internalization at 37° C. with pH 2.5 wash. On the procedure: (§1) To measure phage binding, 10^6 cells in binding buffer (DMEM containing 1% BSA) were incubated with 10^9 pfu/ml of T7 phage for 1 hour at 4° C. The cells were washed 4 times with the binding buffer, lysed in LB bacterial growth medium containing 1% NP-40, and titrated. Phage internalization assays used the same procedure, except that the cells were incubated with the phage at 37° C., and that an acidic buffer (500 mM sodium chloride, 0.1 M glycine, 1% BSA, pH 2.5) was used instead of binding buffer in the second wash.
Inhibitors of phage binding and internalization (heparin, chondroitin, glycocalyx removal enzymes, endocytosis inhibitors, free peptides, quantum dots and UV-inactivated phage) were added to the cells 20 minutes prior to incubation with phage. Endocytosis inhibitors used in this study were the following: nystatin (50 μg/ml), genistein (100 μg/ml), chlorpromazine (5 μg/ml), 5-(N-ethyl-N-isopropyl)amiloride (100 μM), wortmannin (10 μM).
M21 melanoma cells were transiently transfected with these constructs using lipofectamine according to manufacturer's instructions (Invitrogen, Carlsbad, Calif.). Protease treatment of phage and qdots. 10^9 phage particles or 50 μl of peptide-coated qdots phage were treated with 50 iu of uPA, 25 μg of crystalline trypsin, 50 iu of thrombin, or 25 μg of collagenase type I (all Sigma, St. Louis, Mo.).

The test system of data set [2] is orthotopic MIA PaCa-2 human pancreatic carcinoma xenografts. Nature of the data set: In vivo systemic permeability assay with Evans Blue, pancreatic tumor xenografts. Set-up: species or system mice. The conditions noted are these: 100 nmol (or 100 μg) peptide 5 min after Evans Blue, tissues collected 30 min later. On the procedure:
FIGS. 5A and 5B show tumor-specific entry of Evans Blue (albumin) into extravascular tumor tissue in iRGD-injected mice. iRGD is SEQ ID NO:3. iRGDD is SEQ ID NO:4. Mice bearing orthotopically transplanted pancreatic or breast cancer xenografts were injected with […] of Evans Blue, followed 5 min later by 100 μg of iRGD peptide in PBS, PBS alone, or a control peptide. Tumors and tissues were collected 30 min. later and examined for dye content. […] About 4 times more dye accumulated in the iRGD-treated tumors than in control tumors. The control peptides included non-CendR RGD peptides.
FIGS. 9A-9D show a tumor-specific entry of Evans Blue into extravascular tumor tissue in iRGD-injected mice. iRGD is SEQ ID NO:3. iRGDD is SEQ ID NO:4. […] (FIGS. 9B to 9D) Quantification of Evans Blue in the pancreatic tumors and tissues. […]
Five min later, the mice received an intravenous injection with 100 μl of PBS with or without iRGD or control peptides at various concentrations. […] For Evans Blue quantification, the dye was extracted from tissues using N,N-dimethylformamide for 24 hours at 37° C. and the dye content was quantified by measuring the absorbance at 600 nm with a spectrophotometer. […] Quantification of the positive area in immunohistochemically stained sections, and total amount of antibodies within the tissues are described elsewhere in this manuscript.

In data set [3] the target is T1, NRP-1 (Homo sapiens, UniProt O14786).
T1 construct: from tissue; host or cells: orthotopic PPC-1 prostate tumor xenografts grown in BALB/c athymic nude mice
In words: Affinity chromatography of PPC-1 tumor extracts on immobilized RPARPAR peptide. In kind it is binding. The conditions noted are these: PPC-1 tumor extract; confirmed by immunoblotting. On the procedure: PPC-1 tumors were lysed in PBS containing 200 mM n-octyl-beta-D-glucopyranoside, followed by incubation with RPARPAR (SEQ ID NO:2)-coated Sulfolink-beads (Pierce, Rockford, Ill.) and elution in lysis buffer containing 2 mM free RPARPAR (SEQ ID NO:2) peptide. Gel fragments excised from silver stained gel of eluted fractions were subjected to MALDI-TOF mass spectrometry at the Burnham Institute for Medical Research Proteomics Resource.
Orthotopic PPC-1 tumors were homgenized in PBS containing 400 mM n-octyl-beta-D-glucopyranoside, 1 mM MgSO4, 1 mM MnCl2, 1 mM CaCl2) and 1 tablet/5 ml of EDTA-free protease inhibitors cocktail (Sigma, St. Louis, Mo.). After 6 hours of extraction on a rotating platform at 4° C., the lysate was cleared by centrifugation (20 minutes at 14,000 rpm in refrigerated microcentrifuge) and loaded to an affinity column prepared by coupling cysteine-tagged RPARPAR (SEQ ID NO:2) peptide to Sulfolink coupling gel according to the manufacturer's instructions (Pierce, Rockford, Ill.). After overnight binding, the column was washed with a column wash buffer containing 200 mM n-octyl-beta-D-glucopyranoside, but otherwise identical to the lysis buffer, followed by elution with 2 mM free RPARPAR (SEQ ID NO:2) peptide in the same buffer. […]

Data set [4] has as its target T2, NRP-1 (Homo sapiens, UniProt O14786, E348A/S346A/T349A).
T2 construct: expressed in transfected cells; host or cells: M21 melanoma cells, transient lipofectamine transfection
In words: RPARPAR binding and internalization in M21 melanoma cells with or without NRP-1 expression. In kind it is cell-based. The conditions noted are these: triple mutation of VEGF-165 binding site in b1 domain. On the procedure:
as §1, with “For biopanning and phage binding studies (Hoffman, J. A. et al., 2004), cultured cells were grown to confluence and harvested with trypsin and mouse organs were dissociated using Medimachine (BD Biosciences, San Jose, Calif.). To” for “To”
(§2) Expression construct of the wild type NRP-1 cDNA in pcDNA3.1(+) was a kind gift of Dr. Michael Klagsbrun. Site directed mutagenesis was used to generate triple mutation of the VEGF-165 binding site in the b1 domain of NRP-1 (S346A-E348A-349A) by replacing […] (SEQ ID NO:29; encoding amino acids SKET) with […] (SEQ ID NO:30; encoding AKAA).
(§3) M21 melanoma cells were transiently transfected with these constructs using lipofectamine according to manufacturer's instructions (Invitrogen, Carlsbad, Calif.). Protease treatment of phage and qdots. […]

Data set [5] relates to NRP-1. Described as above. As to conditions: M21 cells, which do not express NRP-1. In kind it is cell-based. On the procedure:
as §1, with “For biopanning and phage binding studies (Hoffman, J. A. et al., 2004), cultured cells were grown to confluence and harvested with trypsin and mouse organs were dissociated using Medimachine (BD Biosciences, San Jose, Calif.). To” for “To”
as §2, §3

The test system of a further data set is live, unfixed cells. Nature of the data set: Binding and uptake of peptide-functionalized quantum dots by cells. In kind it is cell-based. As to conditions: streptavidin qdots coated with biotinylated peptide. On the procedure:
Biotinylated peptides were used to functionalize the 605ITK streptavidin qdots (Invitrogen, Carlsbad, Calif.) according to the manufacturer's instructions.
Streptavidin ITK-605 quantum dots (Invitrogen, Carlsbad, Calif.) were functionalized with biotinylated peptides by incubation with 100 fold molar excess of peptide followed by removal of free peptide by dialysis.

A short description of data set [6]: Stability of methylated iRGD peptides against proteolysis. As to conditions: peptide bond protected by C-methylation or N-methylation. In kind it is in vitro ADME.
Another data set deals with orthotopic 22Rv1 tumors. Nature of the data set: 22Rv1 xenograft treatment with DOX-liposomes. In kind it is in vivo, mice. The conditions noted are these: daily i.v. 1 mg DOX/kg + 2 μmol/kg peptide, 17 days, tumor weight. On the procedure:
(FIGS. 14A and 14B) Nude mice bearing orthotopic 22Rv1 human prostate tumors were intravenously injected with DOX-liposomes (3 mg DOX/kg) followed 5 min later by 100 nmol iRGD or PBS. Tumors and tissues were collected 3 hours later. In (FIG. 14A), the tumors were sectioned and stained with an anti-CD31 antibody. The doxorubicin is represented by the light specs that look like four halos in the left panel. Scale bars=200 μm, n=3. In (FIG. 14B), DOX in the tissues was quantified. […] The tumors were harvested and weighed after 17 days of treatment. The number of mice in each group was 5. One of 3 experiments that gave similar results is shown. (FIG. 14D) TUNEL staining was performed immunohistochemically on tissue sections of the tumor and heart samples from the treatment study, and quantified for positivity. Statistical analyses were performed with Student's r-test in (FIG. 14B), and ANOVA in (FIG. 14C) and (FIG. 14D); error bars, s.e.m.; n.s., not significant; single asterisk, p<0.05; double asterisk, p<0.01; triple asterisk, p<0.001.
Nude mice bearing 2 week-old orthotopic 22Rv1 tumors received daily intravenous injections of DOX-liposomes ([…]) or PBS, combined with 2 μmol/kg iRGD or PBS. The tumors were harvested and weighed after 17 days of treatment. The number of animals in each group was 13. […]

Where no end group is shown, it is not given here. [ ]: non-standard residue; d: D form.

T1 sequence (O14786 22-923): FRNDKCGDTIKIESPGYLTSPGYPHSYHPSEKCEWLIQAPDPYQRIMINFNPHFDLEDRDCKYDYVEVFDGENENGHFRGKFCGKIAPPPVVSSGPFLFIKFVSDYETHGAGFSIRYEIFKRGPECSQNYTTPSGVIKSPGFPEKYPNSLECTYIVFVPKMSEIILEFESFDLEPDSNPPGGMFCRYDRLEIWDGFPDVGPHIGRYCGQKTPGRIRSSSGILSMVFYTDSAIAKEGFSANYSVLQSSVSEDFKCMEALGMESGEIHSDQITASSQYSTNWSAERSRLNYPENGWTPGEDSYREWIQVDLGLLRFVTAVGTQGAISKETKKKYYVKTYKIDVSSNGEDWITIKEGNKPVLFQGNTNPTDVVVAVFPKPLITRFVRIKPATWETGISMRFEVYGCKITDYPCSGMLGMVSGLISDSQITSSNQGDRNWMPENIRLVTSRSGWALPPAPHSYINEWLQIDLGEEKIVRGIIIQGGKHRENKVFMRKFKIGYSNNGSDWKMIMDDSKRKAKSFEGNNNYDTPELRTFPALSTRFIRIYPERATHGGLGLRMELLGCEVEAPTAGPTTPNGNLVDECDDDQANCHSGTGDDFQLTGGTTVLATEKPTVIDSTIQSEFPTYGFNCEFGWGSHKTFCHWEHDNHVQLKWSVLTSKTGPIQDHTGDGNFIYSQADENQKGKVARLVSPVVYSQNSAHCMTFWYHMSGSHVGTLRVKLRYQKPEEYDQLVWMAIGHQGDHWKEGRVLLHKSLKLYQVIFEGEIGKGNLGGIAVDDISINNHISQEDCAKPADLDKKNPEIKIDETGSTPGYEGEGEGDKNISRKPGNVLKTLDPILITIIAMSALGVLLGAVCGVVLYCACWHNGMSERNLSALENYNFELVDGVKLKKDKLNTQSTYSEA
T2 sequence (O14786 22-923 S346A/E348A/T349A): as the sequence (O14786 22-923) above, with S325A, E327A, T328A counted along it

Turning to “CRGDC [non-internalizing, non-CendR RGD peptide, reference compound]”, in data set [1], the “effect of trypsin treatment of phage on binding to PPC1 cells” value (from here on “effect of trypsin treatment of phage”) is “no effect”. In the case of CDCRGDCFC [RGD-4C, reference compound], the “effect of trypsin treatment of phage” value in data set [1] is on record as “no effect”. Besides, the “Evans Blue leakage/accumulation in tumor (vascular permeability effect)” value in data set [2] was “inactive”. RPARPAR [prototypic CendR peptide]: the “effect of inhibitors of cell internalization pathways on peptide-mediated internalization” value in data set [1] (endocytosis inhibitors added 20 minutes before phage) is recorded as “None of the available inhibitors of the various cell internalization pathways inhibited internalization”. In addition, in data set [1] (unlabeled peptide included in the binding buffer), the “effect of unlabeled peptide on binding and uptake of VEGF-C7, enhanced tuftsin or A7R phage by PPC-1 cells” value is listed as “both activities were reduced”. For the same substance, in the data set with NRP-1 [3], the “protein eluted from immobilized peptide with free peptide” value was 130-kDa protein, identified by MALDI-TOF mass spectroscopy as NRP-1. For the same substance, the “binding by M21 cells transfected with NRP-1 binding pocket mutant” value with NRP-1 [4] is “did not confer”. In addition, in the data set with NRP-1 [5], the “binding and internalization by M21 melanoma cells” value is on record as “do not bind nor internalize”. For the substance “TKPPR [enhanced tuftsin, reference compound]”, the “phage binding to and internalization into PPC1 cells” value (shortened to “phage binding”) in data set [1] is “bound to and were taken up by PPC-1 cells”.

In the case of ATWLPPR [A7R, reference compound], the “phage binding” value in data set [1] is “bound to and were taken up by PPC-1 cells”. As to “rparpar ([dR][dP][dA][dR][dP][dA][dR]; also: on quantum dots) [D-rparpar, RPARPAR peptide comprised of D-amino acids, on quantum dots]”, in the data set with live, unfixed cells, the “binding and uptake of peptide-functionalized quantum dots” value is recorded as “greatly reduced ability to trigger uptake of quantum dots”. With C(CMe)RGDKGPDC, in data set [6], the stability against proteolysis result is “stable against unwanted proteolysis”. With cyclo(-RGDfK-), in data set [2], the “Evans Blue leakage/accumulation in tumor (vascular permeability effect)” value is “inactive”. For the same substance, in the data set on orthotopic 22Rv1 tumors, the “anti-tumor effect of DOX-liposomes 1 mg DOX/kg combined with peptide” value was “failed to enhance the effect of the drug”. RPARPARA: in data set [1], the “phage binding” value is “abolished cell binding and internalization”; the “effect of trypsin treatment of phage” value is on record as “restored PPC-1 cell binding”. Turning to CR(NMe)GDKGPDC, the stability against proteolysis entry in data set [6] is “stable against unwanted proteolysis”.

For the origin of these results see patent US11059718B2, “Methods and compositions using peptides and proteins with C-terminal elements” (Sanford Burnham Prebys Medical Discovery Institute, priority 2009, dated 2021).
